The target in the test is Voltage-dependent calcium channel subunit alpha-2/delta-1 (Homo sapiens, UniProt P54289). As to the kind of experiment: [3H]Gabapentin binding in human A710 membrane expressing alpha-2delta subunit of calcium channel. It is filed as cell membranes.
Voltage-dependent calcium channel subunit alpha-2/delta-1, sequence (P54289 25-956 limits assumed): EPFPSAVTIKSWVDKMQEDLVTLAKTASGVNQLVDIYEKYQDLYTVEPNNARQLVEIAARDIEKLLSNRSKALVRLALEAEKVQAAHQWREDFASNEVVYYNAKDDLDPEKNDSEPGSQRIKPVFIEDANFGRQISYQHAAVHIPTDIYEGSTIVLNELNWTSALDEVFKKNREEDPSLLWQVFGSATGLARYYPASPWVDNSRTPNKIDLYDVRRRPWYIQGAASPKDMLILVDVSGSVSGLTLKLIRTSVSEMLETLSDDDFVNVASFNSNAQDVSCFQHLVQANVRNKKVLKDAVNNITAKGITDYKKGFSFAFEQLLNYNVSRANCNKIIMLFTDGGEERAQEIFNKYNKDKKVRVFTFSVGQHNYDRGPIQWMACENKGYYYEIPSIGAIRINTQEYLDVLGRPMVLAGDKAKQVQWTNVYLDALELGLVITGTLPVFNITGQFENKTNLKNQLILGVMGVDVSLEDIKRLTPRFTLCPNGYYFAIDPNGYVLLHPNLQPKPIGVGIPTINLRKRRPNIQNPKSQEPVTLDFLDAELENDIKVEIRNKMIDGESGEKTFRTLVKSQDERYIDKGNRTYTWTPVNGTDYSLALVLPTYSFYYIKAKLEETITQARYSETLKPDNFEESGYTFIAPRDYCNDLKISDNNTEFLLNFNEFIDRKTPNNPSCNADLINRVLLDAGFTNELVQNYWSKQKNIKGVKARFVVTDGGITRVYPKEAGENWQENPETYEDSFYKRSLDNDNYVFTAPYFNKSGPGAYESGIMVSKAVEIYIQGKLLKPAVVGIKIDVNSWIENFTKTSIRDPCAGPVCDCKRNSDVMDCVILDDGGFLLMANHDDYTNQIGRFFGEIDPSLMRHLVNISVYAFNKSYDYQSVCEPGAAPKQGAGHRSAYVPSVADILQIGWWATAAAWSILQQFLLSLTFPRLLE
Voltage-dependent calcium channel subunit alpha-2/delta-1, sequence (P54289 957-1103 limits assumed): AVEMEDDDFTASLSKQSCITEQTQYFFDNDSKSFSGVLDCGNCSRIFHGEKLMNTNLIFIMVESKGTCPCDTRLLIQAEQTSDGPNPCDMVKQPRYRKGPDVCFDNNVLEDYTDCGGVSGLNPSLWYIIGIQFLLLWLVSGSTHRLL
For orientation: IC50 means the concentration that gives 50% inhibition. For the molecule `CCOc1ccc(-n2c(C)c3c(C)nnc(N4CCC5=C(C4)NC4C=CC=CC54)c3c2C)cc1` (stereo not drawn), the IC50 came out at 135 nM.

Consider `CCCCNc1nnc(C)c2c(C)n(-c3ccc(OCC)cc3)c(C)c12`, for which the IC50 is 61 nM.

Consider `CCOc1ccc(-n2c(C)c3c(C)nnc(NCc4cccc(Cl)c4)c3c2C)cc1`, for which the IC50 was 37 nM.

`CCOc1ccc(-n2c(C)c3c(C)nnc(NCc4cnn(C)c4)c3c2C)cc1`: the IC50 amounted to 69 nM.

`CCOc1ccc(-n2c(C)c3c(C)nnc(NCc4cccc(OC)c4)c3c2C)cc1`: the IC50 is 239 nM.

Regarding `CCOc1ccc(-n2c(C)c3c(C)nnc(NCc4cccc5[nH]ccc45)c3c2C)cc1`, the IC50 came to 70 nM.

Take `CCOc1ccc(-n2c(C)c3c(C)nnc(N4CCOCC4)c3c2C)cc1`: the IC50 was found to be 1690 nM.

For the molecule `CCOc1ccc(-n2c(C)c3c(C)nnc(NC(C)C)c3c2C)cc1`, the IC50 came out at 67 nM.

For the molecule `CCOc1ccc(-n2c(C)c3c(C)nnc(NCc4cccc(F)c4)c3c2C)cc1`, the IC50 was determined as 18 nM.

On to `CCOc1ccc(-n2c(C)c3c(C)nnc(NCc4ccc(F)cc4)c3c2C)cc1`, for which the IC50 amounted to 94 nM.

On to `CCOc1ccc(-n2c(C)c3c(C)nnc(NC4CCCc5ccccc54)c3c2C)cc1` (stereo not drawn), for which the IC50 came to 161 nM.

Regarding `CCOc1ccc(-n2c(C)c3c(C)nnc(N4CCC(C)CC4)c3c2C)cc1`, the half-maximal inhibitory concentration (IC50) turned out to be 370 nM.

Regarding `CCOc1ccc(-n2c(C)c3c(C)nnc(NCc4ccccc4OC)c3c2C)cc1`, the IC50 came out at 76 nM.

Take `CCOc1ccc(-n2c(C)c3c(C)nnc(NCc4ccc(OC)cc4)c3c2C)cc1`: the IC50 is 702 nM.

Turning to `CCOc1ccc(-n2c(C)c3c(C)nnc(NCc4cccnc4)c3c2C)cc1`, the IC50 worked out at 119 nM.

Turning to `CCOc1ccc(-n2c(C)c3c(C)nnc(Nc4ccc5[nH]ccc5c4)c3c2C)cc1`, the IC50 amounted to 30 nM.

`CCOc1ccc(-n2c(C)c3c(C)nnc(Nc4ccc5[nH]ncc5c4)c3c2C)cc1`: the IC50 is 36 nM.

Regarding `CCOc1ccc(-n2c(C)c3c(C)nnc(Nc4ccc5[nH]nnc5c4)c3c2C)cc1`, the IC50 was found to be 346 nM.

Regarding `CCOc1ccc(-n2c(C)c3c(C)nnc(NCC(C)CC)c3c2C)cc1` (stereo not drawn), the IC50 was 84 nM.

With `CCOc1ccc(-n2c(C)c3c(C)nnc(N4CC(C)CC(C)C4)c3c2C)cc1` (stereo not drawn), the IC50 stood at 702 nM.

With `CCOc1ccc(-n2c(C)c3c(C)nnc(NCc4ccc5c(n4)NCCC5)c3c2C)cc1`, the IC50 was determined as 32 nM.

As for `CCOc1ccc(-n2c(C)c3c(C)nnc(NCc4ccc(Cl)cc4)c3c2C)cc1`, the IC50 is 65 nM.

`CCOc1ccc(-n2c(C)c3c(C)nnc(N4CCC(NC(C)=O)C4)c3c2C)cc1` (stereo not drawn): the IC50 worked out at 144 nM.

`CCOc1ccc(-n2c(C)c3c(C)nnc(N4CCCC4)c3c2C)cc1`: the IC50 came to 180 nM.

On to `CCOc1ccc(-n2c(C)c3c(C)nnc(NC(C)CC(C)C)c3c2C)cc1` (stereo not drawn), for which the IC50 amounted to 296 nM.

With `CCOc1ccc(-n2c(C)c3c(C)nnc(Nc4ccc5c(c4)OCO5)c3c2C)cc1`, the IC50 amounted to 207 nM.

Consider `CCOc1ccc(-n2c(C)c3c(C)nnc(NCc4ccccn4)c3c2C)cc1`, for which the IC50 was over 3000 nM.

With `CCOc1ccc(-n2c(C)c3c(C)nnc(NCc4n[nH]cc4C4CC4)c3c2C)cc1`, the half-maximal inhibitory concentration (IC50) came to 68 nM.

Turning to `CCOc1ccc(-n2c(C)c3c(C)nnc(NCc4cnn(CC)c4)c3c2C)cc1`, the IC50 was determined as 64 nM.

Regarding `CCOc1ccc(-n2c(C)c3c(C)nnc(Nc4ccc5c(c4)CCC5)c3c2C)cc1`, the IC50 amounted to 199 nM.

Regarding `CCOc1ccc(-n2c(C)c3c(C)nnc(N4CC(C)OC(C)C4)c3c2C)cc1` (stereo not drawn), the IC50 is over 3000 nM.

`CCOc1ccc(-n2c(C)c3c(C)nnc(NC4CCc5ccccc54)c3c2C)cc1` (stereo not drawn): the IC50 came out at 54 nM.

Take `CCOc1ccc(-n2c(C)c3c(C)nnc(N4C[C@@H]5CCc6ccccc6[C@@H]5C4)c3c2C)cc1`: the half-maximal inhibitory concentration (IC50) came to 84 nM.

With `CCOc1ccc(-n2c(C)c3c(C)nnc(N4CCN(C)CC4)c3c2C)cc1`, the half-maximal inhibitory concentration (IC50) worked out at 2930 nM.

For the molecule `CCOc1ccc(-n2c(C)c3c(C)nnc(NCc4cccc5cccnc45)c3c2C)cc1`, the IC50 was found to be 63 nM.

For the molecule `CCOc1ccc(-n2c(C)c3c(C)nnc(NCc4ccncc4)c3c2C)cc1`, the IC50 was found to be 84 nM.

With `CCOc1ccc(-n2c(C)c3c(C)nnc(N4CCC(c5ccccc5)(c5ccccc5)C4)c3c2C)cc1`, the IC50 was 153 nM.

In the case of `CCOc1ccc(-n2c(C)c3c(C)nnc(NCC4CCCO4)c3c2C)cc1` (stereo not drawn), the concentration for half-maximal inhibition (IC50) was determined as 50 nM.

The values are drawn from ChEMBL document CHEMBL1149422, “Expedited SAR study of high-affinity ligands to the alpha(2)delta subunit of voltage-gated calcium channels: Generation of a focused library using a solution-phase Sn2Ar coupling methodology” (Bioorg Med Chem Lett, 2006).
